Data as given in PubChem BioAssay (NCI).
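Values below derive from 48-hour exposures of cells grown in 96-well plates, with endpoints linearly interpolated between the two concentrations bracketing the appropriate inhibition level. Abbreviation: GI50, concentration required for 50% inhibition of growth. TGI is the concentration that stops growth completely.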

Columns and labels:
Assay in all cases: growth of human tumour cells (NCI), 48 h; in the data active = GI50 below about 0.43 µM; inactive = the rest
786-0 renal = tested on: 786-0 renal
A498 renal = tested on: A498 renal
A549 NSCLC = tested on: A549 NSCLC
ACHN renal = tested on: ACHN renal
BT-549 breast = tested on: BT-549 breast
CAKI-1 renal = tested on: CAKI-1 renal
CCRF-CEM leukemia = tested on: CCRF-CEM leukemia
COLO 205 colon = tested on: COLO 205 colon
DU-145 prostate = tested on: DU-145 prostate
EKVX NSCLC = tested on: EKVX NSCLC
HCC-2998 colon = tested on: HCC-2998 colon
HCT-116 colon = tested on: HCT-116 colon
HCT-15 colon = tested on: HCT-15 colon
HL-60(TB) leukemia = tested on: HL-60(TB) leukemia
HOP-62 NSCLC = tested on: HOP-62 NSCLC
HOP-92 NSCLC = tested on: HOP-92 NSCLC
HS 578T breast = tested on: HS 578T breast
HT29 colon = tested on: HT29 colon
IGROV1 ovarian = tested on: IGROV1 ovarian
K-562 leukemia = tested on: K-562 leukemia
KM12 colon = tested on: KM12 colon
LOX IMVI melanoma = tested on: LOX IMVI melanoma
M14 melanoma = tested on: M14 melanoma
MALME-3M melanoma = tested on: MALME-3M melanoma
MCF7 breast = tested on: MCF7 breast
MDA-MB-231 breast = tested on: MDA-MB-231 breast
MDA-MB-435 = tested on: MDA-MB-435
MOLT-4 leukemia = tested on: MOLT-4 leukemia
NCI-H226 lung = tested on: NCI-H226 lung
NCI-H23 lung = tested on: NCI-H23 lung
NCI-H460 lung = tested on: NCI-H460 lung
NCI-H522 lung = tested on: NCI-H522 lung
NCI/ADR-RES ovarian = tested on: NCI/ADR-RES ovarian
OVCAR-3 ovarian = tested on: OVCAR-3 ovarian
OVCAR-4 ovarian = tested on: OVCAR-4 ovarian
OVCAR-5 ovarian = tested on: OVCAR-5 ovarian
OVCAR-8 ovarian = tested on: OVCAR-8 ovarian
PC-3 prostate = tested on: PC-3 prostate
RPMI-8226 leukemia = tested on: RPMI-8226 leukemia
RXF 393 renal = tested on: RXF 393 renal
SF-268 CNS = tested on: SF-268 CNS
SF-295 CNS = tested on: SF-295 CNS
SF-539 CNS = tested on: SF-539 CNS
SK-MEL-2 melanoma = tested on: SK-MEL-2 melanoma
SK-MEL-28 melanoma = tested on: SK-MEL-28 melanoma
SK-MEL-5 melanoma = tested on: SK-MEL-5 melanoma
SK-OV-3 ovarian = tested on: SK-OV-3 ovarian
SN12C renal = tested on: SN12C renal
SNB-19 CNS = tested on: SNB-19 CNS
SNB-75 CNS = tested on: SNB-75 CNS
SR leukemia = tested on: SR leukemia
SW-620 colon = tested on: SW-620 colon
T-47D breast = tested on: T-47D breast
TK-10 renal = tested on: TK-10 renal
U251 CNS = tested on: U251 CNS
UACC-257 melanoma = tested on: UACC-257 melanoma
UACC-62 melanoma = tested on: UACC-62 melanoma
UO-31 renal = tested on: UO-31 renal

COc1c(C(N)=O)cc(-c2ccc(Cl)cc2)cc1-c1ccc(S(N)(=O)=O)cc1
18.8 µM: TGI (TK-10 renal)
> 20.3 µM: TGI (K-562 leukemia)
24.8 µM: TGI (PC-3 prostate)
10.4 µM: TGI (HOP-92 NSCLC)
> 25 µM: TGI (786-0 renal) | TGI (A549 NSCLC) | TGI (ACHN renal) | TGI (BT-549 breast) | TGI (CAKI-1 renal) | TGI (CCRF-CEM leukemia) | TGI (COLO 205 colon) | TGI (DU-145 prostate) | TGI (EKVX NSCLC) | TGI (HCC-2998 colon) | TGI (HCT-116 colon) | TGI (HCT-15 colon) | TGI (HOP-62 NSCLC) | TGI (HT29 colon) | TGI (IGROV1 ovarian) | TGI (KM12 colon) | TGI (LOX IMVI melanoma) | TGI (M14 melanoma) | TGI (MALME-3M melanoma) | TGI (MCF7 breast) | TGI (MDA-MB-435) | TGI (NCI-H226 lung) | TGI (NCI-H23 lung) | TGI (NCI-H460 lung) | TGI (NCI/ADR-RES ovarian) | TGI (OVCAR-3 ovarian) | TGI (OVCAR-4 ovarian) | TGI (OVCAR-5 ovarian) | TGI (OVCAR-8 ovarian) | TGI (RPMI-8226 leukemia) | TGI (RXF 393 renal) | TGI (SF-268 CNS) | TGI (SF-295 CNS) | TGI (SF-539 CNS) | TGI (SK-MEL-28 melanoma) | TGI (SK-MEL-5 melanoma) | TGI (SK-OV-3 ovarian) | TGI (SN12C renal) | TGI (SNB-19 CNS) | TGI (SNB-75 CNS) | TGI (SW-620 colon) | TGI (T-47D breast) | TGI (U251 CNS) | TGI (UACC-257 melanoma) | TGI (UACC-62 melanoma)
> 20.8 µM: TGI (NCI-H522 lung)
> 23.3 µM: TGI (A498 renal)
inactive: GI50 (786-0 renal) 12.5 µM | GI50 (A498 renal) 9.03 µM | GI50 (A549 NSCLC) 8.33 µM | GI50 (ACHN renal) 10.1 µM | GI50 (BT-549 breast) 10.5 µM | GI50 (CAKI-1 renal) 10.9 µM | GI50 (CCRF-CEM leukemia) 8.53 µM | GI50 (COLO 205 colon) > 17.6 µM | GI50 (DU-145 prostate) 9.29 µM | GI50 (EKVX NSCLC) 8.91 µM | GI50 (HCC-2998 colon) 11.4 µM | GI50 (HCT-116 colon) 12.4 µM | GI50 (HCT-15 colon) 9.66 µM | GI50 (HL-60(TB) leukemia) 7.19 µM | GI50 (HOP-62 NSCLC) 18.8 µM | GI50 (HOP-92 NSCLC) 3.26 µM | GI50 (HS 578T breast) 14.4 µM | GI50 (HT29 colon) 11 µM | GI50 (IGROV1 ovarian) 10.4 µM | GI50 (K-562 leukemia) 7.94 µM | GI50 (KM12 colon) 11 µM | GI50 (LOX IMVI melanoma) 12.4 µM | GI50 (M14 melanoma) > 17.2 µM | GI50 (MALME-3M melanoma) 12.7 µM | GI50 (MCF7 breast) 11.9 µM | GI50 (MDA-MB-231 breast) 10.3 µM | GI50 (MDA-MB-435) 11.4 µM | GI50 (MOLT-4 leukemia) 8.96 µM | GI50 (NCI-H226 lung) 9.52 µM | GI50 (NCI-H23 lung) > 18.3 µM | GI50 (NCI-H460 lung) 11.5 µM | GI50 (NCI-H522 lung) 8.11 µM | GI50 (NCI/ADR-RES ovarian) > 17.5 µM | GI50 (OVCAR-3 ovarian) 9.79 µM | GI50 (OVCAR-4 ovarian) 10.6 µM | GI50 (OVCAR-5 ovarian) 15 µM | GI50 (OVCAR-8 ovarian) 9.33 µM | GI50 (PC-3 prostate) 7.08 µM | GI50 (RPMI-8226 leukemia) 9.13 µM | GI50 (RXF 393 renal) 7.88 µM | GI50 (SF-268 CNS) 8.81 µM | GI50 (SF-295 CNS) 11.2 µM | GI50 (SF-539 CNS) 14.2 µM | GI50 (SK-MEL-2 melanoma) 7.89 µM | GI50 (SK-MEL-28 melanoma) 16.9 µM | GI50 (SK-MEL-5 melanoma) 7.4 µM | GI50 (SK-OV-3 ovarian) > 22 µM | GI50 (SN12C renal) 10.5 µM | GI50 (SNB-19 CNS) 14 µM | GI50 (SNB-75 CNS) 7.76 µM | GI50 (SR leukemia) 6 µM | GI50 (SW-620 colon) 12 µM | GI50 (T-47D breast) 9.71 µM | GI50 (TK-10 renal) 6.65 µM | GI50 (U251 CNS) 9.52 µM | GI50 (UACC-257 melanoma) 8.72 µM | GI50 (UACC-62 melanoma) 12.8 µM | GI50 (UO-31 renal) 9.95 µM
15.7 µM: TGI (SR leukemia)
> 23.5 µM: TGI (UO-31 renal)
21 µM: TGI (SK-MEL-2 melanoma)
24.2 µM: TGI (MDA-MB-231 breast)
24.9 µM: TGI (HS 578T breast)
> 17.9 µM: TGI (HL-60(TB) leukemia)
> 20.7 µM: TGI (MOLT-4 leukemia)
